For one assay, the system named is Botrytis cinerea. Briefly: In vivo test on Botrytis cinerea (gherkin grey mould) on gherkin plants. The settings on record: 330 ppm; comparison compounds of WO 01/11965. The procedure:
(§1) The active ingredients tested are prepared by homogenization in a mixture of DMSO (dimethylsulfoxid)/acetone/tween/water. This suspension is then diluted with water to obtain the desired active material concentration.
Gherkin plants (Petit Vert de Paris variety) in starter cups, sown on a 50/50 peat soil-pozzolana substrate and grown at 18-20° C., are treated at the cotyledon Z11 stage by spraying with the aqueous suspension described above. Plants, used as controls, are treated with an aqueous solution not containing the active material.
After 24 hours, the plants are contaminated by depositing drops of an aqueous suspension of Botrytis cinerea spores (150,000 spores per ml) on upper surface of the leaves. The spores are collected from a 15-day-old culture and are suspended in a nutrient solution composed of: • 20 g/L of gelatin • 50 g/L of cane sugar • 2 g/L of NH4NO3 • 1 g/L of KH2PO4
The contaminated gherkin plants are settled for 5/7 days in a climatic room at 15-11° C. (day/night) and at 80% relative humidity.
Grading is carried out 5/7 days after the contamination, in comparison with the control plants.

A further assay concerns Alternaria brassicae. As to the kind of experiment: In vivo test on Alternaria brassicae (leaf spot of crucifers) on radish plants. Particulars: 330 ppm; comparison compounds of WO 01/11965. As for the experimental part:
as §1
Radish plants (Pernot variety) in starter cups, sown on a 50/50 peat soil-pozzolana substrate and grown at 18-20° C., are treated at the cotyledon stage by spraying with the aqueous suspension described above.
Plants, used as controls, are treated with an aqueous solution not containing the active material.
After 24 hours, the plants are contaminated by spraying them with an aqueous suspension of Alternaria brassicae spores (40,000 spores per cm^3). The spores are collected from a 12-13-day-old culture.
The contaminated radish plants are incubated for 6-7 days at about 18° C., under a humid atmosphere.
Grading is carried out 6 to 7 days after the contamination, in comparison with the control plants.

For another assay, the system named is Peronospora parasitica. Briefly: Efficacy against Peronospora parasitica. Particulars: 330 ppm; comparison compound of WO 01/11965. Type of assay: in vivo.

For the compound `CCNC(=O)C(Cc1ncc(C(F)(F)F)cc1Cl)NC(=O)c1ccccc1Br` (stereo not drawn) [compound 310, N-{1-ethylcarbamoyl-2-[3-chloro-5-(trifluoromethyl)-2-pyridinyl]ethyl}-2-bromobenzamide], the “effectiveness on Botrytis cinerea” value with Botrytis cinerea is “zero effectiveness”. In the case of `CCNC(=O)C(Cc1ncc(C(F)(F)F)cc1Cl)NC(=O)c1cccc([N+](=O)[O-])c1` (stereo not drawn) [compound 307, N-{1-ethylcarbamoyl-2-[3-chloro-5-(trifluoromethyl)-2-pyridinyl]ethyl}-3-nitrobenzamide], the “effectiveness on Botrytis cinerea” value in the assay with Botrytis cinerea was “zero effectiveness”. Besides, in the assay on Alternaria brassicae, the “effectiveness on Alternaria brassicae” value is “poor effectiveness”. In the case of `CNC(=O)C(Cc1ncc(C(F)(F)F)cc1Cl)NC(=O)c1ccccc1` (stereo not drawn) [compound 314, N-{1-methylcarbamoyl-2-[3-chloro-5-(trifluoromethyl)-2-pyridinyl]ethyl}-benzamide], in the assay on Botrytis cinerea, the “effectiveness on Botrytis cinerea” value is reported as “zero effectiveness”. As for `CNC(=O)C(Cc1ncc(C(F)(F)F)cc1Cl)NC(=O)c1ccc(-c2ccccc2)cc1` (stereo not drawn) [compound 316, N-{1-methylcarbamoyl-2-[3-chloro-5-(trifluoromethyl)-2-pyridinyl]-ethyl}-4-phenylbenzamide], the “effectiveness on Botrytis cinerea” value with Botrytis cinerea was “zero effectiveness”. Further, the “effectiveness on Alternaria brassicae” value in the assay with Alternaria brassicae was “poor effectiveness”. Regarding `CNC(=O)C(Cc1ncc(C(F)(F)F)cc1Cl)NC(=O)c1ccc(OC)cc1` (stereo not drawn) [compound 315, N-{1-methylcarbamoyl-2-[3-chloro-5-(trifluoromethyl)-2-pyridinyl]ethyl}-4-methoxybenzamide], the “effectiveness on Botrytis cinerea” value with Botrytis cinerea is reported as “zero effectiveness”. On the same count and under the same terms, to `CCNC(=O)C(Cc1ncc(C(F)(F)F)cc1Cl)NC(=O)c1ccccc1` (stereo not drawn) [compound 304, N-{1-ethylcarbamoyl-2-[3-chloro-5-(trifluoromethyl)-2-pyridinyl]-ethyl}-benzamide] belongs “zero effectiveness”. Regarding `O=C(Cc1cccs1)NCc1ncc(C(F)(F)F)cc1Cl` [compound 101, N-{[3-chloro-5-(trifluoromethyl)-2-pyridinyl]methyl}-5-thienylacetamide], in the assay with Botrytis cinerea, the “effectiveness on Botrytis cinerea” value is recorded as “no efficacy”. Also, in the assay on Peronospora parasitica, the “efficacy against Peronospora parasitica” value is “no efficacy”. Besides, the “effectiveness on Alternaria brassicae” value in the assay with Alternaria brassicae is “poor efficacy”.

In the case of `CCNC(=O)C(Cc1ncc(C(F)(F)F)cc1Cl)NC(=O)c1ccc(Cl)cc1` (stereo not drawn) [compound 306, N-{1-ethylcarbamoyl-2-[3-chloro-5-(trifluoromethyl)-2-pyridinyl]ethyl}-4-chlorobenzamide], the “effectiveness on Botrytis cinerea” value with Botrytis cinerea is given as “zero effectiveness”.
